From article PMC12488667, “Orodispersible films containing chestnut shell phenolics for buccal delivery: a preclinical approach for oral mucositis prevention” (Frontiers in Medical Technology, 2025)
Marks after values point to notes of the source that are not given here.

How the values were obtained:
[1] = Ex vivo permeation, Franz cells; assay type: in vitro ADME, porcine
Protocol: Porcine buccal mucosa was used to evaluate the buccal permeation of the phenolic compounds in the extract and the CS-loaded OFs (n = 9). The porcine buccal mucosa was purchased in a local butcher shop, not requiring ethical approval. A Franz cell assembly (9 mm clear jacketed Franz cell with a flat ground joint, 5 ml receptor volume, and permeation area of 0.785 cm^2; PermeGear, Inc., USA) was used. This experiment followed the methodology described by Rodrigues et al. ([32]). In the Franz apparatus, the porcine buccal mucosa was positioned with the cheek side facing the donor chamber, which contained 500 µl (1,000 μg/ml) of the CS extract or the CS-loaded OFs (two square films (2 × 2 cm) with […] of thickness were dissolved in 4 ml of artificial saliva; donor concentration was normalized to ensure equivalence between the extract solution and the film formulation). The receptor chamber was filled with 5 ml PBS, maintained at 37°C, and stirred continuously at 150 rpm. The volume was maintained through the experiments.
(§1) The identification and quantification of the phenolic compounds present in the extract and the OFs, as well as the compounds that permeated from the OFs through in vitro and ex vivo assays, were conducted using an LC-ESI-LTQ-Orbitrap-HRMS equipment with an Accela chromatograph (Thermo Scientific, Hemel Hempstead, UK), a photodiode array detector, a quaternary pump, and a temperature-controlled autosampler coupled to a high-resolution LTQ Orbitrap Velos mass spectrometer (Thermo Scientific, Hemel Hempstead, UK) with an ESI source in negative mode ([33], [34]). The system was controlled using the Xcalibur v3.0 software (ThermoFisher Scientific, Hemel Hempstead, UK). Elution was performed on an Acquity™ UPLC® BEH C18 Column (2.1 × 100 mm, i.d., 1.7 µm particle size, Waters Corporation, Wexford, Ireland) maintained at 30°C.
(§2) Gradient elution was performed with water (A) and acetonitrile (B), both with 0.1% formic acid, with a flow rate and injection volume of 450 µl/min and 5 µl, respectively. The solvent gradient (v/v) of B [t (min), %B] was set as follows: (0, 0), (2, 0), (4, 30), (8, 100), (10, 100), (11, 0), and (14, 0). The samples were analyzed in the full scan mode at a resolving power of 30,000 and m/z 600. Data-dependent MS/MS events were acquired at a resolution of 15,000. Most intense ions were detected via the FTMS mode-triggered data-dependent acquisition mode. Ions that were not sufficiently intense for a data-dependent scan were explored in MSn mode. Precursors were fragmented by collision-induced dissociation using a C-trap with a normalized collision energy (35 V) and an activation time of 10 ms. […] Compounds whose theoretical [M–H]^− values exceeded the MS¹ acquisition range (m/z 100–600) were annotated based on characteristic MSⁿ fragment ions detected within the scan window.
Quantitative analysis was performed by using a validated chromatographic method ([38]).

TR146 cells = assay: In vitro permeation, buccal model; assay type: in vitro ADME, human
Protocol: The in vitro permeability of the bioactive compounds present in OFs (n = 9) was determined using a co-culture model composed of TR146 ([31]). The extract and the CS-loaded OFs were added to the apical side of the model as a stock solution. […] The Transepithelial Electrical Resistance (TEER) of the model was evaluated before, during, and at the end of the permeability assay using an EVOM Epithelial Volthometer equipped with a chopstick electrode (World Precision Instruments, Sarasota, FL, USA).
as §1, §2

| SMILES | Quantification of permeated compounds ([1]; CS extract) | Quantification of permeated compounds ([1]; CS-loaded OFs) | Permeation (%) ([1]; from CS extract, 15 min) | Permeation (%) ([1]; from CS extract, 30 min) | Quantification of permeated compounds (TR146 cells; CS extract) | Quantification of permeated compounds (TR146 cells; CS-loaded OFs) | Permeation (%) (TR146 cells; from CS extract, 15 min) | Permeation (%) (TR146 cells; from CS extract, 30 min) | Permeation (%) (TR146 cells; from CS extract, 45 min) | Permeation (%) (TR146 cells; from CS extract, 60 min) | Permeation (%) (TR146 cells; from CS extract, 90 min) | Permeation (%) (TR146 cells; from CS extract, 120 min) | Permeation (%) (TR146 cells; from CS extract, 180 min) | Permeation (%) (TR146 cells; from CS extract, 240 min) | Permeation (%) (TR146 cells; from CS-loaded OFs, 15 min) | Permeation (%) (TR146 cells; from CS-loaded OFs, 45 min) | Permeation (%) (TR146 cells; from CS-loaded OFs, 60 min) | Permeation (%) (TR146 cells; from CS-loaded OFs, 90 min) | Permeation (%) (TR146 cells; from CS-loaded OFs, 120 min) | Permeation (%) (TR146 cells; from CS-loaded OFs, 180 min) | further results |
| --- | --- | --- | --- | --- | --- | --- | --- | --- | --- | --- | --- | --- | --- | --- | --- | --- | --- | --- | --- | --- | --- |
| COc1cc(CC(=O)O)ccc1O [Homovanillic acid] | 2.03 ± 0.03^a mg/ml | 1.67 ± 0.03^a mg/g film | 99.88 ± 2.79^a % | 100.53 ± 3.72^a % | 0.58 ± 0.03^a mg/ml | 0.41 ± 0.01^a mg/g film | 93.51 ± 2.52^b % | 92.34 ± 1.55^b % | 92.13 ± 1.08^b % | 93.10 ± 0.94^b % | 94.47 ± 3.00^b % | 90.93 ± 2.74^b % | 91.20 ± 1.73^b % | 87.20 ± 2.06^a % | 106.01 ± 1.46^a % | 105.41 ± 0.99^a % | 103.62 ± 2.72^a % | 105.25 ± 2.83^a % | 109.09 ± 1.97^a % | 106.07 ± 2.67^a % | Permeation (%) (TR146 cells; from CS extract, 240 min, listed as homovanillic acid): 87.20%; Permeation (%) (TR146 cells; from CS-loaded OFs, 30 min): 104.89 ± 1.08^a %; Permeation (%) (TR146 cells; from CS-loaded OFs, 240 min): 110.05 ± 3.61^a %; Permeation (%) (TR146 cells; from CS-loaded OFs, 240 min, listed as homovanillic acid): 110.05% |
| O=C(O)C[C@H](C(=O)O)[C@@H](O)C(=O)O [Isocitric acid] | 2.20 ± 0.05^a mg/ml | 2.21 ± 0.16^a mg/g film | 15.13 ± 0.29^a % | 13.91 ± 1.51^a % | 222.23 ± 6.57^a mg/ml | 306.36 ± 13.65^b mg/g film | 0.04 ± 0.01^a % | 0.12 ± 0.03^a % | 0.15 ± 0.01^a % | 0.15 ± 0.01^a % | 0.24 ± 0.03^a % | 0.33 ± 0.02^a^,^b % | 0.54 ± 0.04^a^,^b % | 0.70 ± 0.01^b % | 0.15 ± 0.001^a % | 0.50 ± 0.06^a % | 0.62 ± 0.02^a % | 1.04 ± 0.01^b % | 1.40 ± 0.04^b % | 2.77 ± 0.01^b % | Permeation (%) ([1]; from CS-loaded OFs, 15 min): 19.05 ± 1.12^a %; Permeation (%) ([1]; from CS-loaded OFs, 30 min): 19.02 ± 0.90^a %; Permeation (%) (TR146 cells; from CS-loaded OFs, 30 min): 0.29 ± 0.05^a %; Permeation (%) (TR146 cells; from CS-loaded OFs, 240 min): 3.38 ± 0.06^b % |
| O=C(O)CCC(=O)O [Succinic acid] | 1.26 ± 0.01^b mg/ml | 0.38 ± 0.01^a mg/g film | 60.67 ± 0.21^b % | 70.72 ± 3.61^b % | 1.60 ± 0.03^a mg/ml | 0.82 ± 0.01^a mg/g film | 20.51 ± 1.62^b % | 14.86 ± 2.71^a % | 16.09 ± 1.85^a % | 14.96 ± 0.46^a % | 19.54 ± 0.94^b % | 20.71 ± 1.67^b % | 21.62 ± 0.61^b % | 23.76 ± 1.68^b % | 44.20 ± 2.19^a % | 56.70 ± 1.23^b % | 57.45 ± 0.78^b % | 79.12 ± 4.41^c % | 88.23 ± 1.26^c % | 103.25 ± 1.42^d % | Permeation (%) ([1]; from CS-loaded OFs, 15 min): 14.00 ± 0.63^a %; Permeation (%) ([1]; from CS-loaded OFs, 30 min): 16.11 ± 0.72^a %; Permeation (%) (TR146 cells; from CS-loaded OFs, 30 min): 64.44 ± 1.03^c %; Permeation (%) (TR146 cells; from CS-loaded OFs, 240 min): 100.86 ± 1.75^d %; Permeation (%) (TR146 cells; from CS-loaded OFs, 240 min, listed as succinic acid): 100.86% |

More lines, main results first:

| Quantification of permeated compounds ([1]; CS extract) | Quantification of permeated compounds ([1]; CS-loaded OFs) | Permeation (%) ([1]; from CS extract, 15 min) | Permeation (%) ([1]; from CS extract, 30 min) | Quantification of permeated compounds (TR146 cells; CS extract) | Quantification of permeated compounds (TR146 cells; CS-loaded OFs) | Permeation (%) (TR146 cells; from CS extract, 15 min) | Permeation (%) (TR146 cells; from CS extract, 30 min) | Permeation (%) (TR146 cells; from CS extract, 45 min) | Permeation (%) (TR146 cells; from CS extract, 60 min) | Permeation (%) (TR146 cells; from CS extract, 90 min) | Permeation (%) (TR146 cells; from CS extract, 120 min) | Permeation (%) (TR146 cells; from CS extract, 180 min) | Permeation (%) (TR146 cells; from CS extract, 240 min) | SMILES | Permeation (%) (TR146 cells; from CS-loaded OFs, 15 min) | Permeation (%) (TR146 cells; from CS-loaded OFs, 45 min) | Permeation (%) (TR146 cells; from CS-loaded OFs, 60 min) | Permeation (%) (TR146 cells; from CS-loaded OFs, 90 min) | Permeation (%) (TR146 cells; from CS-loaded OFs, 120 min) | Permeation (%) (TR146 cells; from CS-loaded OFs, 180 min) | further results |
| --- | --- | --- | --- | --- | --- | --- | --- | --- | --- | --- | --- | --- | --- | --- | --- | --- | --- | --- | --- | --- | --- |
| 1.18 ± 0.1^b mg/ml | 0.09 ± 0.02^a mg/g film | 5.91 ± 0.06^a % | 4.76 ± 0.02^a % | 1.52 ± 0.02^a mg/ml | 0.36 ± 0.03^a mg/g film | 13.57 ± 0.05^a % | 13.06 ± 0.03^a % | 14.09 ± 0.01^a % | 17.29 ± 0.01^a % | 16.17 ± 0.06^a % | 29.12 ± 0.19^b % | 16.86 ± 0.23^a % | 24.23 ± 0.45^b % | O=C(O)c1cccc(O)c1 [3-Hydroxybenzoic acid] |  |  |  |  |  |  | Permeation (%) ([1]; from CS-loaded OFs, 15 min): 45.86 ± 0.03^b %; Permeation (%) ([1]; from CS-loaded OFs, 30 min): 105.28 ± 3.37^b % |
| 0.97 ± 0.03^b mg/ml | 0.13 ± 0.01^a mg/g film | 19.05 ± 1.63^a % | 19.06 ± 0.61^a % | 0.53 ± 0.03^a mg/ml | 0.41 ± 0.02^a mg/g film | 39.32 ± 0.96^b % | 43.86 ± 1.62^b % | 42.03 ± 0.79^b % | 38.29 ± 0.86^b % | 37.52 ± 0.97^b % | 25.84 ± 1.03^a % | 40.40 ± 0.82^c % | 32.88 ± 0.87^b % | O=C(O)c1ccc(O)c(O)c1 [Protocatechuic acid] | 89.42 ± 3.08^b % | 85.88 ± 2.01^b % | 94.08 ± 3.56^b % | 96.88 ± 1.43^b % | 106.06 ± 0.78^b % | 84.76 ± 2.51^b % | Permeation (%) (TR146 cells; from CS-loaded OFs, 240 min): 75.80 ± 0.91^a %; Permeation (%) (TR146 cells; from CS-loaded OFs, 240 min, listed as protocatechuic acid): 75.80% |
